Test results from paper PMC4685510, “A Cell Biologist’s Field Guide to Aurora Kinase Inhibitors” (Frontiers in Oncology, 2015).

Legend:
Test in all cases: biochemical
Format in all cases: biochemical
[1] = target: 363 human kinases (including Aurora A/B/C) (Homo sapiens, UniProt P07947); settings: YES/YES1; for remaining activity at 0.1 µM: 100 nM; for remaining activity at 0.1 µM / remaining activity at 0.5 µM: read-out: % Enzyme Activity (relative to DMSO controls)
Description: (§1) However, the Aurora A/B selectivity ratios derived from our in vitro and in vivo data can be compared to prioritize inhibitors.

[2] = target: 363 human kinases (including Aurora A/B/C) (Homo sapiens, UniProt P10721); settings: c-Kit, [ATP] 100 µM; for remaining activity at 0.1 µM: 100 nM; for remaining activity at 0.1 µM / remaining activity at 0.5 µM: read-out: % Enzyme Activity (relative to DMSO controls)
363 human kinases (including Aurora A/B/C) (Homo sapiens, UniProt P10721), sequence (P10721 26-976): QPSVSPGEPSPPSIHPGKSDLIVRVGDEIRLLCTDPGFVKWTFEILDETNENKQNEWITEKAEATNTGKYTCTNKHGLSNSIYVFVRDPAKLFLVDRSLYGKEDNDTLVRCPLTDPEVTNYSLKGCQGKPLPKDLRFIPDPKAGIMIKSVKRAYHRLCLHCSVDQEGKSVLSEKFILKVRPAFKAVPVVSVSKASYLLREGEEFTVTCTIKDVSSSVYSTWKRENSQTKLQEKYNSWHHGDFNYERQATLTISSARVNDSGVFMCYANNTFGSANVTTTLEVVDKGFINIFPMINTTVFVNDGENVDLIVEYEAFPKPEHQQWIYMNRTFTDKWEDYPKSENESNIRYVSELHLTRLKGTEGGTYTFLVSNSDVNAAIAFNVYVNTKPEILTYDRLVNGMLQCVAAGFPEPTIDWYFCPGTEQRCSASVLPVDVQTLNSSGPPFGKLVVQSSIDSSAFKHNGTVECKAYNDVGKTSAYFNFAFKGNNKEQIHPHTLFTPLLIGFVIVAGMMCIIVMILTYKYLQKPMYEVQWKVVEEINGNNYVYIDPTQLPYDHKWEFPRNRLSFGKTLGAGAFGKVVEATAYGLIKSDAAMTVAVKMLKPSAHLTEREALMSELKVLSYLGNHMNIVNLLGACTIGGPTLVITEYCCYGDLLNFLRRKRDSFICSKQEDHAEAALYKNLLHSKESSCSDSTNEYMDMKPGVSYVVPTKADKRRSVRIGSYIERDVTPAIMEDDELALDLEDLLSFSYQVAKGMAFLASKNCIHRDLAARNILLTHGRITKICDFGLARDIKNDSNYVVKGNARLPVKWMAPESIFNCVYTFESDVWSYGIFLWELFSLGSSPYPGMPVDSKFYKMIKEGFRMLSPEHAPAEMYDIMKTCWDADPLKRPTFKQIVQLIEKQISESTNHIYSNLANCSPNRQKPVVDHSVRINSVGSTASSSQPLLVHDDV
Description: as §1

[3] = target: 363 human kinases (including Aurora A/B/C) (Homo sapiens, UniProt P48729); settings: CK1a1, [ATP] 20 µM; for remaining activity at 0.1 µM: 100 nM; for remaining activity at 0.1 µM / remaining activity at 0.5 µM: read-out: % Enzyme Activity (relative to DMSO controls)
Description: as §1

[4] = target: T1, 363 human kinases (including Aurora A/B/C) (Homo sapiens, UniProt P51956); settings: NEK3; for remaining activity at 0.1 µM: 100 nM; for remaining activity at 0.1 µM / remaining activity at 0.5 µM: read-out: % Enzyme Activity (relative to DMSO controls)
T1 sequence (P51956 1-506): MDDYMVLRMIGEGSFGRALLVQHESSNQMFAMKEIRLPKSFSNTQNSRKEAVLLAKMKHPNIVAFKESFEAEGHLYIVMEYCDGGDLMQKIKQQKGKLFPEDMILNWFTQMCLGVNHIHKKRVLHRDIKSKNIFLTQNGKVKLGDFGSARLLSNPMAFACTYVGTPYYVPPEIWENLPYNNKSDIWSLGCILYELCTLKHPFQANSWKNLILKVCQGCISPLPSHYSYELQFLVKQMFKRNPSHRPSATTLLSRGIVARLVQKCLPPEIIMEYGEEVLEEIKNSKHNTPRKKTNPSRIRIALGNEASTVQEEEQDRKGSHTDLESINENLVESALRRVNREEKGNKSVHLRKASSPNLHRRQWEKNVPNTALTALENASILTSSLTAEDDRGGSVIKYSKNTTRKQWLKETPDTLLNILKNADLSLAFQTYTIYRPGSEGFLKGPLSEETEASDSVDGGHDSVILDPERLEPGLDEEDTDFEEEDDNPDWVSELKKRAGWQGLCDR
Description: as §1

[5] = target: 363 human kinases (including Aurora A/B/C) (Homo sapiens, UniProt Q13177); settings: PAK2; for remaining activity at 0.1 µM: 100 nM; for remaining activity at 0.1 µM / remaining activity at 0.5 µM: read-out: % Enzyme Activity (relative to DMSO controls)
Description: as §1

[6] = target: 363 human kinases (including Aurora A/B/C) (Homo sapiens, UniProt Q15746); settings: MLCK/MYLK; for remaining activity at 0.1 µM: 100 nM; for remaining activity at 0.1 µM / remaining activity at 0.5 µM: read-out: % Enzyme Activity (relative to DMSO controls)
Description: as §1

[7] = target: 363 human kinases (including Aurora A/B/C) (Homo sapiens, UniProt Q16620); settings: TRKB; for remaining activity at 0.1 µM: 100 nM
363 human kinases (including Aurora A/B/C) (Homo sapiens, UniProt Q16620), sequence (Q16620 32-822): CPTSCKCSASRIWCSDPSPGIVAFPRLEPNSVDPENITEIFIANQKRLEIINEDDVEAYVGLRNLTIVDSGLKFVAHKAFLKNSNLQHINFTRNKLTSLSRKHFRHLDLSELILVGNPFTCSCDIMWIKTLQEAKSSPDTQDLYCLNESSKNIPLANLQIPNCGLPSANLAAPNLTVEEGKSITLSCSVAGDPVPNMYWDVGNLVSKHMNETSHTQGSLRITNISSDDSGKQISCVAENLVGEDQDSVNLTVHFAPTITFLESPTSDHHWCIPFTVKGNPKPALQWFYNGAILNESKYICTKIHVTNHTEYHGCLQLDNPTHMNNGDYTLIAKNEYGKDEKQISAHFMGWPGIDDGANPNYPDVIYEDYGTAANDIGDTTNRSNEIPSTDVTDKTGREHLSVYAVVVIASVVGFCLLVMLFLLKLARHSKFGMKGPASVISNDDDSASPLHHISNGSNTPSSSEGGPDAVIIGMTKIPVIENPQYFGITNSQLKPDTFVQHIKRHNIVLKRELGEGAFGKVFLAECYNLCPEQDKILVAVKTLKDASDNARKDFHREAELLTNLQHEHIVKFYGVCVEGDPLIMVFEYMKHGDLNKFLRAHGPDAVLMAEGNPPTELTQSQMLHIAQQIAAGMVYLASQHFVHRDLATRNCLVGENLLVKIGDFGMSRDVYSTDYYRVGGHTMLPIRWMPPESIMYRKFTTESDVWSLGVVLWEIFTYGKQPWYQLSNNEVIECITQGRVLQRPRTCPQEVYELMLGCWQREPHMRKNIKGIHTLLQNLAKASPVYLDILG
Description: as §1

[8] = target: 363 human kinases (including Aurora A/B/C) (Homo sapiens, UniProt Q6P5Z2); settings: PKN3/PRK3; for remaining activity at 0.1 µM: 100 nM; for remaining activity at 0.1 µM / remaining activity at 0.5 µM: read-out: % Enzyme Activity (relative to DMSO controls)
363 human kinases (including Aurora A/B/C) (Homo sapiens, UniProt Q6P5Z2), sequence (Q6P5Z2 whole entry): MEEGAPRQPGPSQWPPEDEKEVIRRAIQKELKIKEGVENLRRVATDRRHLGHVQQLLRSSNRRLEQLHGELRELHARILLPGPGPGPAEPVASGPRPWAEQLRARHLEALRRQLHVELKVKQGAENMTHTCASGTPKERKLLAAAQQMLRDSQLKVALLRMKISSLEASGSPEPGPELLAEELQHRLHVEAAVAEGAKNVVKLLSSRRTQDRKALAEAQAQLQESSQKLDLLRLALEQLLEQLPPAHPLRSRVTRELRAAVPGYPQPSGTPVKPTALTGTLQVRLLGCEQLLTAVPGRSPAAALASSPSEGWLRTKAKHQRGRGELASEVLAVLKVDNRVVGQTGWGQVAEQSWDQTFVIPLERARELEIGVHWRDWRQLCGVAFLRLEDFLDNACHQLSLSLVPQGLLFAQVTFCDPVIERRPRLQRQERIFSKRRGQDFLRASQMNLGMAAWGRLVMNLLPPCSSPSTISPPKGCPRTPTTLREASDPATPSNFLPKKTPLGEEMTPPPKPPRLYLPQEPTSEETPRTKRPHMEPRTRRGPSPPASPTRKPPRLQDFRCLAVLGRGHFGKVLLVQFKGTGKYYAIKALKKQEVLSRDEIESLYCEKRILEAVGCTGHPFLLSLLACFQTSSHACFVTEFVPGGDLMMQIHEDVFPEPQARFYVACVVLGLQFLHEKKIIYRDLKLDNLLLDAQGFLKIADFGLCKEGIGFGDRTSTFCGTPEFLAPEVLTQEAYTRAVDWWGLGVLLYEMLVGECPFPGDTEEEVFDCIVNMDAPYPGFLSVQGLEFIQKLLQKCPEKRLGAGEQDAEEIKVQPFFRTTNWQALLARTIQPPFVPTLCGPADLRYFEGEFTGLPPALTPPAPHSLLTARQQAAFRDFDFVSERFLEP
Description: as §1

[9] = target: T2, 363 human kinases (including Aurora A/B/C) (Homo sapiens, UniProt Q86SG6); settings: NEK8; for remaining activity at 0.1 µM: 100 nM; for remaining activity at 0.1 µM / remaining activity at 0.5 µM: read-out: % Enzyme Activity (relative to DMSO controls)
T2 sequence (Q86SG6 1-692): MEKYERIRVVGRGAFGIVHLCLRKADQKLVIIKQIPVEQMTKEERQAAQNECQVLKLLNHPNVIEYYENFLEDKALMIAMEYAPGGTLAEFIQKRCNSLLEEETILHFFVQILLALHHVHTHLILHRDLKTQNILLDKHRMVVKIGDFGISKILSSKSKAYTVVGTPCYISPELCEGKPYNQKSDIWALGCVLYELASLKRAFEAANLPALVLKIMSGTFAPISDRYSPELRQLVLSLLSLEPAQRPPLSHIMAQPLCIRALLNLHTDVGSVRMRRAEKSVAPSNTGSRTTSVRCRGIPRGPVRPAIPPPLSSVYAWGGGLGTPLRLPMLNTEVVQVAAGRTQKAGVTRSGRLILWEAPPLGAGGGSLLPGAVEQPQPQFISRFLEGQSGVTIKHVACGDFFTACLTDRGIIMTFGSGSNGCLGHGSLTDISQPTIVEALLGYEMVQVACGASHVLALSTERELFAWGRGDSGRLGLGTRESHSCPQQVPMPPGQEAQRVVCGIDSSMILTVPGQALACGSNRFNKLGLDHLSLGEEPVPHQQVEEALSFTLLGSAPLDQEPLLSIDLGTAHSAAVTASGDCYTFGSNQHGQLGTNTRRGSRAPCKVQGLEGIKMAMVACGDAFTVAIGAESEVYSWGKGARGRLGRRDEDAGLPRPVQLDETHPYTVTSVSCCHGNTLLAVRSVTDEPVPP
Description: as §1

[10] = target: 363 human kinases (including Aurora A/B/C) (Homo sapiens, UniProt Q86Z02); settings: HIPK1; for remaining activity at 0.1 µM: 100 nM; for remaining activity at 0.1 µM / remaining activity at 0.5 µM: read-out: % Enzyme Activity (relative to DMSO controls)
363 human kinases (including Aurora A/B/C) (Homo sapiens, UniProt Q86Z02), sequence (Q86Z02 whole entry): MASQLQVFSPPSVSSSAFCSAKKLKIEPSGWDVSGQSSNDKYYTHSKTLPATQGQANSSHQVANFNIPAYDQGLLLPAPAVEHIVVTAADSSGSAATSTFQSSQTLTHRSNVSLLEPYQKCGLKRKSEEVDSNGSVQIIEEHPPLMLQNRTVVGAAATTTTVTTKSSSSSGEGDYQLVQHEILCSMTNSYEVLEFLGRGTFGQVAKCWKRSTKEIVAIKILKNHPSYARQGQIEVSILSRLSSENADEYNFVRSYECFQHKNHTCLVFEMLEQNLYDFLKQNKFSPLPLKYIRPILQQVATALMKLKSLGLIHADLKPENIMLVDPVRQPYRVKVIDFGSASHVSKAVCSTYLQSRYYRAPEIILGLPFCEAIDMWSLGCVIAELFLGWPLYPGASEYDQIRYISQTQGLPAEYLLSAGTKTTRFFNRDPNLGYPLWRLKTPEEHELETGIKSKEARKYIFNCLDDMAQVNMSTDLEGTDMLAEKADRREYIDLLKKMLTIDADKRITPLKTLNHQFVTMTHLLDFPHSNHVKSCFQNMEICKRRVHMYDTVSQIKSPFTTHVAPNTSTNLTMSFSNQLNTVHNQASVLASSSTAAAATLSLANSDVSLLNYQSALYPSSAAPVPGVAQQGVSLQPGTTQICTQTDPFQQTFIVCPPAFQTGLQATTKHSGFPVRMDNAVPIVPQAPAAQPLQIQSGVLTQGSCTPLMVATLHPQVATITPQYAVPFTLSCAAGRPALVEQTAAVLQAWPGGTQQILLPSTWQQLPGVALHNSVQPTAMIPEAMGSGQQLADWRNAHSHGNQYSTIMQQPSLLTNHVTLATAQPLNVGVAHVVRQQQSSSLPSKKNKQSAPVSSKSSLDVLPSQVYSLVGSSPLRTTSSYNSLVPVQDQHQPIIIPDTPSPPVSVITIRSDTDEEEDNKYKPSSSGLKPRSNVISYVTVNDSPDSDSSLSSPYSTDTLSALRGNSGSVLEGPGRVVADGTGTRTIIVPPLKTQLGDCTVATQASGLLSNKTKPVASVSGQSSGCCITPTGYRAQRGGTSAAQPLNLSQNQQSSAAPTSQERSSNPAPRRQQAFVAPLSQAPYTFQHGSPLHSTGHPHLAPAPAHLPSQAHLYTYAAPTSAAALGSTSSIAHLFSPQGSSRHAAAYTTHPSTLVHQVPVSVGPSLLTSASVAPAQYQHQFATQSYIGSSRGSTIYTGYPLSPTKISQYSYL
Description: as §1

[11] = target: 363 human kinases (including Aurora A/B/C) (Homo sapiens, UniProt Q9H422); settings: HIPK3; for remaining activity at 0.1 µM: 100 nM; for remaining activity at 0.1 µM / remaining activity at 0.5 µM: read-out: % Enzyme Activity (relative to DMSO controls)
363 human kinases (including Aurora A/B/C) (Homo sapiens, UniProt Q9H422), sequence (Q9H422 whole entry): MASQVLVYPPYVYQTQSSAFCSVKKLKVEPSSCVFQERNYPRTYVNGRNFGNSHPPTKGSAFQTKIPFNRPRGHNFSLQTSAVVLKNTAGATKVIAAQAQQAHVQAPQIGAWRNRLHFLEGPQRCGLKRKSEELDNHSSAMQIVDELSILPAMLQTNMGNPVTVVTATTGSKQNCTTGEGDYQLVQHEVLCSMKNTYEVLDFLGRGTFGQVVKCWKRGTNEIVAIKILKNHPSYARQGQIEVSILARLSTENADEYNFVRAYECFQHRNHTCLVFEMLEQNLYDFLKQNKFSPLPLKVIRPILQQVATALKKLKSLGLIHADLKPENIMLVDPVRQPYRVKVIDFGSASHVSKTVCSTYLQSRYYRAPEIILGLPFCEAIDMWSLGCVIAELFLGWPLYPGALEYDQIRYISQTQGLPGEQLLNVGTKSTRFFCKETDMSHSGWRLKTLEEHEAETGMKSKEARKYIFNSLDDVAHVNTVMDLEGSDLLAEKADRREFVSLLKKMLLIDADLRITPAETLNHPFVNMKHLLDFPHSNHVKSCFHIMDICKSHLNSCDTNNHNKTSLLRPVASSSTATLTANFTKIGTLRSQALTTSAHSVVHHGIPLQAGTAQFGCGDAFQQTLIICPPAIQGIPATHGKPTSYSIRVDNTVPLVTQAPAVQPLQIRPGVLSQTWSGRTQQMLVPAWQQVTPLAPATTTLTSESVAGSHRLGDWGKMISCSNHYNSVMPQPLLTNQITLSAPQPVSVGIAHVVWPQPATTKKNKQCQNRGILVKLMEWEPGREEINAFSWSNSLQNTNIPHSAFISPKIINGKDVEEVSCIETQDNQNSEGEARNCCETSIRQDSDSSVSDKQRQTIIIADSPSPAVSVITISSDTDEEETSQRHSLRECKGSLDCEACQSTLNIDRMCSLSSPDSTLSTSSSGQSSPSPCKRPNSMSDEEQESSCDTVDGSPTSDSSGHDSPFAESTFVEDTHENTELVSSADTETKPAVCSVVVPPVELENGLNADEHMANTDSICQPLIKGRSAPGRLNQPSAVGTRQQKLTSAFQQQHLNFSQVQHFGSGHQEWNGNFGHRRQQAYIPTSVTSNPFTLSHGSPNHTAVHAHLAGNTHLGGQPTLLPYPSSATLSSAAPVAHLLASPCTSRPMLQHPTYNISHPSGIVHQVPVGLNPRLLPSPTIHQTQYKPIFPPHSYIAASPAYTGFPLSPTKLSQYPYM
Description: as §1

[12] = target: T3, 363 human kinases (including Aurora A/B/C) (Homo sapiens, UniProt Q9NR20); settings: DYRK4, [ATP] 2.5 µM; for remaining activity at 0.1 µM: 100 nM; for remaining activity at 0.1 µM / remaining activity at 0.5 µM: read-out: % Enzyme Activity (relative to DMSO controls)
T3 sequence (Q9NR20 1-520): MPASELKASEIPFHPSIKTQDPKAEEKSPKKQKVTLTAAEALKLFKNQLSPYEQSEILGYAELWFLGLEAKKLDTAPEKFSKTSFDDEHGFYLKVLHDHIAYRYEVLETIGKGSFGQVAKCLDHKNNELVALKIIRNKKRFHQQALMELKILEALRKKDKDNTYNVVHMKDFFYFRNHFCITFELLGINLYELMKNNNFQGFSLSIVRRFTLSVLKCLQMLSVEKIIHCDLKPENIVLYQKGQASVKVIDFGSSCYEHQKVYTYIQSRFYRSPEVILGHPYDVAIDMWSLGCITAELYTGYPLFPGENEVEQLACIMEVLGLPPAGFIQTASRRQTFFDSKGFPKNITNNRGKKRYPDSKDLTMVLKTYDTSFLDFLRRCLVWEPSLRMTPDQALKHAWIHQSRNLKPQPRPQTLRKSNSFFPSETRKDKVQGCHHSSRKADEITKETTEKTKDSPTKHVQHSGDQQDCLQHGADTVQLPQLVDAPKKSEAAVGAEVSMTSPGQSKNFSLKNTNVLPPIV
Description: as §1

[13] = read-out: % Enzyme Activity (relative to DMSO controls)

Row | SMILES | remaining activity at 0.1 µM [1] | remaining activity at 0.1 µM [2] | remaining activity at 0.1 µM [3] | remaining activity at 0.1 µM [4] | remaining activity at 0.1 µM [5] | remaining activity at 0.1 µM [6] | remaining activity at 0.1 µM [7, 13] | remaining activity at 0.1 µM [8] | remaining activity at 0.1 µM [9] | remaining activity at 0.1 µM [10] | remaining activity at 0.1 µM [11] | remaining activity at 0.1 µM [12] | remaining activity at 0.5 µM ([1]; 500 nM) | remaining activity at 0.5 µM ([2]; 500 nM) | remaining activity at 0.5 µM ([3]; 500 nM) | remaining activity at 0.5 µM ([4]; 500 nM) | remaining activity at 0.5 µM ([5]; 500 nM) | remaining activity at 0.5 µM ([6]; 500 nM) | remaining activity at 0.5 µM ([8]; 500 nM) | remaining activity at 0.5 µM ([9]; 500 nM) | further results
1 | CCn1cc(-c2ccnc3[nH]c(-c4cccc(CN(C)C)c4)cc23)c(-c2ccc(NC(=O)N(C)C)cc2)n1 [GSK1070916] | 69.3% | 76.5% | 103% | 97.7% | 106% | 96.9% | 108% | 107% | 97.8% | 99.2% | 106% | 95.3% |  |  |  |  |  |  |  |  | 
2 | O=C(O)[C@]1(Cc2cccc(Nc3nccs3)n2)CC[C@@H](Oc2cccc(Cl)c2F)CC1 [MK-5108] | 31.3% | 107% | 89% | 99.3% | 97.1% | 89.1% | 1.79% | 90.8% | 81.2% | 96.7% | 97% | 99.4% | 9.25% | 85.6% | 101% | 101% | 98.2% | 73.5% | 88.2% | 82.2% | remaining activity at 0.5 µM ([10]; 500 nM): 67.8%; remaining activity at 0.5 µM ([11]; 500 nM): 70%; remaining activity at 0.5 µM ([12]; 500 nM): 93.6%
3 | O=C(c1cccc(Cl)c1F)N1CCN(Cc2cccc(Nc3nccs3)n2)CC1 [MK-8745] |  |  |  |  |  |  |  |  |  |  |  |  | 34.6% | 88.2% | 99.8% | 100% | 105% | 90.7% | 100% | 91.6% | % Enzyme Activity (relative to DMSO controls) ([1]; 500 nM): 33.63%; % Enzyme Activity (relative to DMSO controls) ([2]; 500 nM): 86.62%; % Enzyme Activity (relative to DMSO controls) ([3]; 500 nM): 99.17%; % Enzyme Activity (relative to DMSO controls) ([4]; 500 nM): 99.14%; % Enzyme Activity (relative to DMSO controls) ([5]; 500 nM): 102.92%; % Enzyme Activity (relative to DMSO controls) ([6]; 500 nM): 89.65%; % Enzyme Activity (relative to DMSO controls) ([7]; 500 nM): 8.70%; remaining activity at 0.5 µM ([7]; 500 nM, read-out: % Enzyme Activity (relative to DMSO controls)): 9.04%; % Enzyme Activity (relative to DMSO controls) ([8]; 500 nM): 100.01%; % Enzyme Activity (relative to DMSO controls) ([9]; 500 nM): 91.43%; % Enzyme Activity (relative to DMSO controls) ([10]; 500 nM): 90.76%; remaining activity at 0.5 µM ([10]; 500 nM): 90.8%; % Enzyme Activity (relative to DMSO controls) ([11]; 500 nM): 105.35%; remaining activity at 0.5 µM ([11]; 500 nM): 105%; % Enzyme Activity (relative to DMSO controls) ([12]; 500 nM): 88.59%; remaining activity at 0.5 µM ([12]; 500 nM): 89.1%
